The text below walks through data of ChEMBL document CHEMBL1154270, “Light-independent metabolomics of endophytic Thielavia subthermophila provides insight into microbial hypericin biosynthesis” (J Nat Prod, 2009).

Activity calls are given as the source filed them. The calls are words filed in the database; no cut-off is given here.

Experiment [1] has as its system THP-1. Description: Cytotoxicity against human THP1 cells after 48 hrs assessed morphological changes compound exposed to light for 20 mins before treatment. The class given is functional, cell-based.
Experiment [2] deals with THP-1. Description: Cytotoxicity against human THP1 cells after 48 hrs assessed as morphological changes in the dark condition. The class given is functional, cell-based.

For `Cc1cc(O)c2c(=O)c3c(O)cc(O)c4c5c(O)cc(O)c6c(=O)c7c(O)cc(C)c8c1c2c(c34)c(c78)c65`, the result in experiment [1] and in experiment [2] was Active.

As to `Cc1cc(O)c2c(c1)C(=O)c1cc(O)cc(O)c1C2=O`, the result in experiment [1] and in experiment [2] was Active.

In the case of `Cc1cc(O)c2c(c1)Cc1cc(O)cc(O)c1C2=O`, the outcome in experiment [1] and in experiment [2] was Active.

In the case of `Cc1cc(O)c2c(=O)c3c(O)cc(O)c4c5c(O)cc(O)c6c(=O)c7c(O)cc(C)cc7c(c65)c(c2c1)c34`, the outcome in experiment [1] and in experiment [2] was Active.
